Data as given in ChEMBL document CHEMBL1156829 (Proc Natl Acad Sci U S A, 2008).

Assays:
Plasmodium falciparum [1] = assay: NOVARTIS: Inhibition of Plasmodium falciparum 3D7 (drug-susceptible) proliferation in erythrocyte-based infection assay; type: functional, organism-based; details: Plasmodium falciparum, 3D7
Plasmodium falciparum [2] = assay: NOVARTIS: Inhibition of Plasmodium falciparum W2 (drug-resistant) proliferation in erythrocyte-based infection assay; type: functional, organism-based; details: Plasmodium falciparum, W2; read-out: EC50
[3] = NOVARTIS: Cytotoxicity against human hepatocellular carcinoma cell line (Huh7); type: toxicity, cell-based, Huh-7; details: Huh7 cells (hepatocellular carcinoma cell line)

Row | SMILES | EC50 (Plasmodium falciparum [1]) [nM] | EC50 (Plasmodium falciparum [2]) [nM] | CC50 [3] [nM]
1 | O=C(O[Si](c1ccccc1)(c1ccccc1)c1ccccc1)c1ccccc1 | > 1250 | 1320 | > 10000
2 | CCN(CC)CCN(Cc1cc2ccc(C)cc2[nH]c1=O)C(=S)NC(C)c1ccccc1 (configuration not stated) | 1690 | 1340 | 21500
3 | Oc1ccc(-c2ccc(F)cc2)cc1CNCCN1CCOCC1 | 901 | 681 | > 10000
4 | CC(=O)N(C1=C(N(C)C)C(=O)c2ccccc2C1=O)c1ccc(F)cc1 | 24.4 | 32 | 2680
5 | CCOc1cc(Br)cc(C=NNC(=O)COc2cccc(C)c2)c1O | 7520 | > 12500 | > 46200
6 | O=C(CC(=O)N1CCOCC1)Nc1ccc2nc3n(c(=O)c2c1)CCCCC3 | > 10000 | 432 | > 100000
7 | O=[N+]([O-])c1ccc(-c2csc(CO)n2)cc1 | > 12500 | 4270 | > 100000
8 | COc1cc(C(=O)NC2CC3CCC(C2)N3C2CC2)cc(OC)c1OC (configuration not stated) | 450 | 487 | > 100000
9 | CCOC(=O)c1c(NC(=O)CSc2nnc(CNC(=O)c3cccc(C)c3)n2-c2cccc(C)c2)sc2c1CCC2 | > 1600 | > 1190 | > 10000
10 | CCOC(=O)c1ccc2nc3c(nc2c1)C(=O)c1ccccc1C3=O | 26.7 | 23.6 | 512
11 | Oc1cccc2ccc(Nc3ccccn3)nc12 | 679 | 302 | 8870
12 | Cc1ccc(Nc2nc(N)c3ccccc3n2)cc1Cl | 527 | 755 | 8920
13 | NNC(=O)CNC(c1ccccc1)c1cc(Br)ccc1NC(=O)c1ccccc1Br (configuration not stated) | 342 | 453 | > 100000
14 | Fc1ccc(CCNc2ncnc3c2[nH]c2ccccc23)cc1 | 257 | 133 | 12000
15 | OCC(O)COc1cccc2ccccc12 (configuration not stated) | > 1050 | < 29.7 | > 11200
16 | CNCC(O)c1ccc(Cl)c(Cl)c1 (configuration not stated) | 837 | 99.1 | > 10000
17 | COc1cc(C(C(=O)NCc2ccccc2)N(C(=O)c2snc(C(N)=O)c2N)c2ccc(C(C)C)cc2)cc(OC)c1OC (configuration not stated) | 2450 | 1290 | > 100000
18 | CC(=O)Nc1ccc(S(=O)(=O)Nc2ccccc2[N+](=O)[O-])cc1 | 677 | 1400 | > 10000
19 | COC(=O)CSc1nnc2c(n1)[nH]c1c(OC)ccc(Cl)c12 | 642 | 736 | > 10000
20 | Cc1cccc2nc(N)nc(N)c12 | 753 | > 1250 | > 10000
21 | Clc1cc(N2CCCCC2)c(Cl)nn1 | > 1250 | > 892 | > 10000
22 | CCOC(=O)c1cnc2ccc(CC)cc2c1O | 716 | 525 | > 100000
23 | Oc1ccc(Cl)cc1CNc1nc2ccccc2[nH]1 | 921 | 768 | 43500

Row | SMILES | EC50 (Plasmodium falciparum [1]) [nM] | EC50 (Plasmodium falciparum [2]) [nM] | CC50 [3] [nM]
24 | CCC(CC)=NNC(=O)C(=O)NC1CCCCC1 | 231 | 535 | > 10000
25 | COC(=O)NCCNC(=O)COC(c1cccs1)c1cccnc1Cl (configuration not stated) | 185 | 170 | > 10000
26 | Cc1cccc(NS(=O)(=O)c2ccc3[nH]c(=O)ccc3c2)c1C | > 12500 | 838 | 81800
27 | COc1ccccc1CNC(=O)CN1C(=O)c2cccnc2Oc2ccccc21 | > 586 | 1350 | > 10000
28 | Cc1cc(Nc2ccc(Br)cc2)n2nc(C)nc2n1 | 728 | 595 | > 100000
29 | N#C/C(=C\n1cc(Cc2ccc(Cl)cc2Cl)c2ccccc21)c1nn(CCO)c(N)c1C#N | 913 | 929 | > 10000
30 | O=C(NCC1(c2ccccc2)CCCC1)C(=O)Nc1nncs1 | > 806 | > 360 | > 10000
31 | CCc1cccc2c(C#N)cn(CC(=O)Nc3ccc(OC)cc3)c12 | 225 | 126 | > 100000
32 | COC(=O)c1c(S(=O)(=O)N2CCN(C)CC2)sc2c1CCN(CCCc1ccccc1)C2 | 1420 | 1260 | > 10000
33 | COc1ccc(C2=CC(=Cc3cccc(OC)c3OC)C(=O)O2)cc1OC | 4760 | 332 | > 100000
34 | CC(C)CNC(=O)c1cnc(NCCC2CCCN2C)nc1NCC1CCCCC1 (configuration not stated) | 920 | > 1250 | > 10000
35 | COc1cccc(-c2ccc(O)c(CNC34CC5CC(CC(C5)C3)C4)c2)n1 | 207 | 50 | > 100000
36 | O=C1[C@@H]2Cc3c([nH]c4ccccc34)C(CCc3ccccc3)N2C(=O)CN1CCc1c[nH]c2ccccc12 (some centres not stated) | 2810 | 1050 | > 100000
37 | COC(=O)C1=C(C)N(C)C(C)=C(C(=O)OC)C1c1ccc([N+](=O)[O-])cc1 | 633 | 2260 | > 100000
38 | Cc1nn(C(=O)NS(=O)(=O)c2ccccc2Cl)c(C)c1C | > 810 | > 496 | > 10000
39 | OC(Cn1nnc2ccccc21)Cn1c2ccc(Br)cc2c2cc(Br)ccc21 (configuration not stated) | 3370 | 1350 | > 78000
40 | CCc1cccc(NC(=S)N2CCCC2c2ccccc2C(F)(F)F)c1 (configuration not stated) | 408 | 170 | > 10000
41 | CCOc1ccc(NCc2ccc(O)c3ncccc23)cc1 | 7610 | > 4370 | > 55600
42 | COc1cc(NC(=O)C(F)(F)F)c(C(=O)c2ccc(C(F)(F)F)cc2)cc1OC | 1140 | > 1200 | > 10000
43 | CC(CNC(=O)c1ccccc1)C(=O)OCC(=O)[C@@]12OC(C)(C)O[C@@H]1CC1C3CCC4=CC(=O)C=C[C@]4(C)[C@@]3(F)[C@@H](O)C[C@@]12C (some centres not stated) | 165 | 159 | 8220
44 | C=C[C@H]1CN2CC[C@H]1C[C@@H]2[C@@H](OC(=O)CCCCl)c1ccnc2ccccc12 | 49 | 96.8 | > 10000
45 | C=CCNC(=O)c1ccc2c(c1)N=C(/C=C/c1ccccc1)N(CCc1cccc(OC)c1)C2 | 1340 | 1040 | > 10000
46 | CCN1/C(=C/c2sc3ccccc3[n+]2CC)C=Cc2cc(NC(C)=O)ccc21 | 255 | 225 | > 10000

Row | SMILES | EC50 (Plasmodium falciparum [1]) [nM] | EC50 (Plasmodium falciparum [2]) [nM] | CC50 [3] [nM]
47 | COc1ccc(OC)c(C2CC(=O)C3=C(C2)NC(=O)CC3c2ccc([N+](=O)[O-])cc2)c1 (configuration not stated) | 262 | 229 | 72200
48 | O=C(CN1CCN(C(=O)c2ccccc2)CC1)Nc1ccc(-c2nc3cc(NC(=O)CN4CCN(C(=O)c5ccccc5)CC4)ccc3o2)cc1 | 235 | 146 | > 100000
49 | CCOC(=O)N1CCN(C(=O)C(=O)NNC(=O)COc2ccc(Cl)cc2Br)CC1 | > 1250 | 769 | > 10000
50 | CCCCCN(C(=O)COCc1ccccc1)C(CC)c1nc2ccccc2c(=O)n1-c1cccc(Cl)c1 (configuration not stated) | 411 | 847 | > 10000
51 | CC(C)[C@@H](CO)Nc1ccnc2c(-c3ccccc3F)cnn12 | > 1250 | > 272 | > 10000
52 | CC1CNC2C(C)C3C(CC4C5CCC6CC(N)CCC6(C)C5CCC43C)OC2(O)C1 (configuration not stated) | 863 | < 12.7 | > 10000
53 | Cc1nc(Cl)cc(N2CCc3c(nc(N4CC(C)OC(C)C4)[nH]c3=O)C2)n1 (configuration not stated) | 176 | > 1250 | > 10000
54 | C=CCN1Cc2ccc(C(=O)NCc3ccccc3)cc2N=C1c1ccc(F)cc1 | > 1250 | < 14.2 | > 12600
55 | CC(=O)N/C(=C\c1ccc(OC(F)F)cc1)C(=O)O | > 1170 | 432 | > 10000
56 | CN(C)c1cc[n+](CC(=O)c2ccc(Br)cc2)cc1 | 211 | 183 | 75600
57 | CSC1=NC(C)(C)CC2(CC(c3ccc(C)cc3)c3cc(Cl)c(O)cc3O2)N1 (configuration not stated) | 993 | 602 | > 10000
58 | CCC(=O)N=c1sc2cc([N+](=O)[O-])ccc2n1CCOC | > 686 | > 1250 | > 10000
59 | C[n+]1ccccc1/C=C/c1ccc(Br)cc1 | 360 | 324 | > 10000
60 | COc1cc(OC)c(NC(=O)C2c3ccccc3C(=O)N(C)C2c2cccs2)cc1Cl (configuration not stated) | 320 | 310 | > 100000
61 | COC(=O)C1=C(C)NC2=C(C(=O)CC(c3ccc(OC)c(OC)c3)C2)C1c1ccc(F)cc1 (configuration not stated) | 27.9 | 14 | > 100000
62 | CCOc1ccc(NC(=O)CSc2nc3cc(OCC)ccc3[nH]2)cc1 | 900 | > 1250 | > 13800
63 | COc1ccc(C(=O)NCCc2ccc(C)cc2)cc1OC1CCN(C(C)=O)CC1 | > 9060 | 2520 | > 100000
64 | CCCN(CC1CC1)C(=O)C1CCCN(c2cccc3c2C(=O)N(Cc2cc(OC)c(OC)c(OC)c2)C3=O)C1 (configuration not stated) | > 1250 | 1120 | > 10000
65 | CCCCC(=O)N(C)CCCNc1ccnc2cc(Cl)ccc12 | 124 | 154 | > 10000
66 | Cc1nc(NN=Cc2ccccc2O)cc(N2CCCCC2)n1 | 1080 | 237 | > 10000
67 | CC(C)(C)NC(=O)C(c1ccncc1)N(Cc1ccccc1Cl)C(=O)c1ccc(-c2ccccc2)[nH]1 (configuration not stated) | > 6470 | > 3990 | 67400
68 | CN(C)CCNc1ncc(C(=O)NCc2ccccc2)c(NCCc2ccccc2)n1 | 475 | 361 | > 10000
69 | COc1cc(OC)c(NC(=O)c2ccc(N3CC4CC(C3)c3cccc(=O)n3C4)c([N+](=O)[O-])c2)cc1Cl (configuration not stated) | 9690 | 1930 | > 100000
